# Measured values reported in patent publication US6165977A, “Isozyme-specific activators of protein kinase C methods and compositions” (Board of Trustees of the Leland Stanford Junior University, priority 1997, dated 2000).
# No end group written: not given here.
# Key:
# βPKC = experiment: Western blot of PMA-induced PKC translocation from cell soluble to particulate fraction; assay type: cell-based, rat; conditions: 10 nM PMA for 10 minutes, cardiac myocytes
# Procedure: (§1) Briefly, ventricles from day-old Sprague-Dawley rats were minced, and single isolated myocytes were obtained by alternating cycles of room temperature trypsinization and mechanical dissociation. […] After 30 minutes nonattached cardiac myocytes were collected and replated at a density of 800 cells per mm^2 into 8-well glass chamber slides (Nunc, Naperville, Ill.) for cell viability assays and immunofluorescence staining, into 6-well plastic culture plates (Fisher Scientific, Pittsburgh, Pa.) for lactate dehydrogenase (LDH) assays, or into 100 mm glass culture dishes for Western blot analyses. […] Experiments were conducted on culture days 6-8.
# (§2) Following treatment, medium from one plate was removed, and cells were washed twice with ice-cold phosphate-buffered saline (PBS). 1.5 ml of chilled homogenization buffer consisting of 10 mM Tris-HCl pH 7.4, 1 mM EDTA, 1 mM EGTA, 0.25 M sucrose, and […] each of phenylmethylsulfonyl fluoride, soybean trypsin inhibitor, leupeptin, and aprotinin was added to each dish. Myocytes were scraped from the plates and triturated 3 times with a tuberculin syringe attached to a 22-gauge needle. […] Supernatants were concentrated to a volume of […] with a Centricon 30 filtration unit (Amicon, Beverly, Mass.).
# δPKC = target: T1, δPKC (Rattus norvegicus, UniProt P09215); experiment: as above; assay type: cell-based; conditions: 10 nM PMA for 10 minutes, cardiac myocytes
# T1 construct: Western Blot of cardiac myocyte soluble and particulate fractions; endogenous in cells; host or cells: primary neonatal Sprague-Dawley rat ventricular myocytes
# T1 sequence (P09215 whole entry): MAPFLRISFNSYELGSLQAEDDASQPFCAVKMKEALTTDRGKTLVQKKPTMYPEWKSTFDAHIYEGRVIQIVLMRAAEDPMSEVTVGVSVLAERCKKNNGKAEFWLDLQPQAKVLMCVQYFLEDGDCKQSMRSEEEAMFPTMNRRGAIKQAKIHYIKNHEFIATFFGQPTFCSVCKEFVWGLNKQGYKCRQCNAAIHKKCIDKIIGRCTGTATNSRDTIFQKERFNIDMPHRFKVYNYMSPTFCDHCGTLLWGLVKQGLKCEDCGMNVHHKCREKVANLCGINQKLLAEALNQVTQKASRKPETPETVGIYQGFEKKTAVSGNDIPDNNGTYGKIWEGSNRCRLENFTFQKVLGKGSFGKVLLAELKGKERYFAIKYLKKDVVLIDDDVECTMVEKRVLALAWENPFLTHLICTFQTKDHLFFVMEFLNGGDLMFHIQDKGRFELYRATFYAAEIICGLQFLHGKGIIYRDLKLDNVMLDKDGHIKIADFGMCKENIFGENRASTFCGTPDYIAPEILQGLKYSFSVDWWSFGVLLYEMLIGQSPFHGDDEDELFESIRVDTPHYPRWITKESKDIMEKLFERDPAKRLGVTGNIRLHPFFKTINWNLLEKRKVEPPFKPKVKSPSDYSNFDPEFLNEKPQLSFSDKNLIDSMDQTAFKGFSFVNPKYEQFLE
# Procedure: Primary cell cultures were prepared as previously described (Disatnik, et al., 1994). Briefly, ventricles from day-old Sprague-Dawley rats were minced, and single isolated myocytes were obtained by alternating cycles of room temperature trypsinization and mechanical dissociation. Cells were washed and preplated in medium 199 with Hanks' salt solution (Gibco/BRL Life Technologies, Gaithersburg, Md.) containing 10% fetal bovine serum (Hyclone Laboratories, Inc., Logan, Utah) to reduce the number of contaminating non-myocardial cells (NMCs). […]
# Western blot analyses of cardiac myocytes grown on 100 mm glass dishes were carried out as previously described (Liu, Y., et al., 1995). […] Soluble and particulate fractions were then subjected to 12% SDS-PAGE and transferred to nitrocellulose sheets. βPKC levels were determined using monoclonal anti-βPKC antibodies (Seikagaku Kogyo, Tokyo, Japan) diluted 1:1000 followed by incubation with rabbit anti-mouse IgG antibodies (Cappel, Durham, N.C.), also at 1:1000 dilution. δPKC and εPKC levels were determined using rabbit polyclonal anti-δPKC and anti-εPKC antibodies (Gibco/BRL), each at 1:300 dilution. Western blots were then incubated with ^125 I-protein A (ICN Biomedicals, Inc., Irvine, Calif.), and PKC immunoreactive bands were detected by autoradiography.
# The ability of PMA to activate the PKC isozymes αPKC, βPKC, δPKC and εPKC was evaluated. […]
# εPKC [1] = target: T2, εPKC (Rattus norvegicus, UniProt P09216); experiment: as above; assay type: cell-based; conditions: 10 nM PMA for 10 minutes, cardiac myocytes
# T2 construct: Western Blot of cardiac myocyte soluble and particulate fractions; endogenous in cells; host or cells: primary neonatal Sprague-Dawley rat ventricular myocytes
# T2 sequence (P09216 1-737): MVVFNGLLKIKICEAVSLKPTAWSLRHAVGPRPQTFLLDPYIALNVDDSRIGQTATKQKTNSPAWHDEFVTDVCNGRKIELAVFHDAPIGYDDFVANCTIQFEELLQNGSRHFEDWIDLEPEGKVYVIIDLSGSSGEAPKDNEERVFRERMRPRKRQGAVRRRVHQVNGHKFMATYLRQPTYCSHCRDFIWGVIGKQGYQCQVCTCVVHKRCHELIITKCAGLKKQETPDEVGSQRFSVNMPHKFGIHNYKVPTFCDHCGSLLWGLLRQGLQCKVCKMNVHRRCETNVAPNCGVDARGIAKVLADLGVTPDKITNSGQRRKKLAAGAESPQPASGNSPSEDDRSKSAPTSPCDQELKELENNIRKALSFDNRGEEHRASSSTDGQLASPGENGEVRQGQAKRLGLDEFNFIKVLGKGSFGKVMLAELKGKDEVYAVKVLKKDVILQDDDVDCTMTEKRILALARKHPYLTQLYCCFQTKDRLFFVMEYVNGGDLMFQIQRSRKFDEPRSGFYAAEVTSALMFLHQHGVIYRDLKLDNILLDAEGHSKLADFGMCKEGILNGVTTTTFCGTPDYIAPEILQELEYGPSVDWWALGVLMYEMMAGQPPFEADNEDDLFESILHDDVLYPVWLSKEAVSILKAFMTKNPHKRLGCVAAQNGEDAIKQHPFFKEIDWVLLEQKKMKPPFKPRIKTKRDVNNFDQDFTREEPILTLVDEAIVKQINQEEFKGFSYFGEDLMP
# Procedure: as §1, §2
# cardiac myocytes [2] = experiment: PMA-induced protection of cardiac myocytes from prolonged hypoxia, cell viability assay; assay type: cell-based, rat; conditions: 10 nM PMA for 10 minutes, washed, then 9 hours of hypoxia
# Procedure: (§3) Primary cell cultures were prepared as previously described (Disatnik, et al., 1994). Briefly, ventricles from day-old Sprague-Dawley rats were minced, and single isolated myocytes were obtained by alternating cycles of room temperature trypsinization and mechanical dissociation. Cells were washed and preplated in medium 199 with Hanks' salt solution (Gibco/BRL Life Technologies, Gaithersburg, Md.) containing 10% fetal bovine serum (Hyclone Laboratories, Inc., Logan, Utah) to reduce the number of contaminating non-myocardial cells (NMCs). After 30 minutes nonattached cardiac myocytes were collected and replated at a density of 800 cells per mm^2 into 8-well glass chamber slides (Nunc, Naperville, Ill.) for cell viability assays and immunofluorescence staining, into 6-well plastic culture plates (Fisher Scientific, Pittsburgh, Pa.) for lactate dehydrogenase (LDH) assays, or into 100 mm glass culture dishes for Western blot analyses. […]
# (§4) Following treatment of cardiac myocytes grown on 8-well chamber slides, living and dead cells were distinguished using the "EUKOLIGHT" Viability/Cytotoxicity assay (Molecular Probes, Eugene, Oreg.). […] The number of viable (green fluorescent by calcine) and non-viable (red fluorescent by ethidium) cardiac myocytes present in 10-20 random microscopic fields per condition per experiment was recorded. […]
# εPKC [3] = target: T2, εPKC; experiment: Effect of isoform-specific inhibitory peptides on PMA-induced PKC translocation, Western blot; assay type: cell-based; conditions: peptide introduced by permeabilization, 10 nM PMA for 10 minutes
# Procedure: as §1, §2
# εPKC [4] = target: T2, εPKC; experiment: Peptide-induced translocation of PKC in cardiac myocytes; assay type: cell-based; conditions: 10 μg/ml in permeabilization buffer
# Procedure: as §3
# Immunofluorescence staining of cardiac myocytes grown on 8-well glass chamber slides was carried out as previously described (Hauser, et al., 1993). […] Images were recorded on Kodak TMAX 400 film with exposure time of 1 second for all photomicrographs and were processed by an automated, commercial developer without additional adjustment. […]
# cardiac myocytes [5] = experiment: Protection of cardiac myocytes from 9 hours of hypoxia by peptides, cell viability assay; assay type: cell-based, rat; conditions: after 9 hours of hypoxia; peptide introduced by saponin permeabilization; average of two experiments
# Procedure: as §3, §4
molecule,measurement,setting,value
"CCCCCCCCCCCCCC(=O)O[C@@H]1[C@@H](C)[C@@]2(O)[C@@H](C=C(CO)C[C@]3(O)C(=O)C(C)=C[C@@H]23)[C@@H]2C(C)(C)[C@]12OC(C)=O [PMA, 4β-phorbol 12-myristate 13-acetate]",translocation of βPKC from the cell soluble to the cell particulate fraction,βPKC,minimal translocation
same,translocation of δPKC in response to PMA,δPKC,robust
same,translocation of εPKC in response to PMA,εPKC [1],robust
same,increase in the proportion of surviving myocytes versus control,cardiac myocytes [2],34%
EAVSLKPT [εV1-2],reduction in the particulate signal compared with PMA alone (densitometry),εPKC [3],23%
HDAPIGYD [εV1-7],cells with translocation of εPKC,εPKC [4],70%
same,viable cells,cardiac myocytes [5],65%
SLNPEWNET [β pseudo-RACK peptide],viable cells,cardiac myocytes [5],35%
